Series [1] has as its target isolated strips of the descending aorta (Rattus norvegicus, UniProt P22002). The series is described as follows: cell-based. The note with it: for Kb: isolated rat aorta, Ca2+ dose-response curves in 25 mM K+, Arunlakshana method, read-out: pA2 (converted). On the set-up: species or system Male Wistar rats. As to the method: The in vitro calcium antagonistic activity of the subject compounds of the formula (I) was evaluated according to substantially the same method as that of Toda et al., J. Pharmacol. Exp. Ther. 181, 512 (1972) and ibid., 191, 139 (1974).
Male Wistar rats weighing 300-400 g were stunned by a sharp blow to the head. The isolated strips of the descending aorta were-fixed vartically in a 50 ml organ both containing Krebs-Henseleit solution maintained at 37° C. and saturated with a 95% O2 +5% CO2 gas mixture. Isometric tension was measured with a foree-displacement transducer and recorded on a polygraph recorder. During a 60-90 min equilibration period the resting tension was repeatedly adjusted to 1 g. The vessels having ability to potassium-induced contractions were exposed to a Ca^2+ -free medium for 30 min and then to 25 mM K^+ solution. When a contractile plateau was reached, Ca^2+ was added, and the cumulative response to 0.25, 0.5 and 4 mM Ca^2+ was recorded. After wash-out and a equilibration period with renewed testing of contractile ability, the preparations were once more exposed to Ca^2+ -free medium. The test compound was added to the organ bath 5 min before administration of potassium. Calcium was cumulatively added once again and the contractile response so obtained was expressed in percent of the contraction elicited by 4 mM Ca^2+. Dose-response curves for Ca^2+ were carried out cumulatively in the absence or presence of increasing concentrations of test compound. The pA2 values were calculated by the method of Arunlakshana et al., Brit. J. Pharmacol., 14, 48 (1959).

Series [2] deals with isolated rabbit aortic strip. The series is described as follows: inhibition of norepinephrine-induced contractions of isolated rabbit aortic strip potentiated by ouabain. The note with it: Oryctolagus cuniculus, read-out: concentration at which norepinephrine-induced contractions are inhibited. The format is cell-based.
In series [3] the test system is mean arterial blood pressure. The series is described as follows: antihypertensive vasodilating activity in anesthetized, ganglion-blocked rats with blood pressure maintained by intravenous angiotensin II. The note with it: 0.01 mg/kg and 0.003 mg/kg. The format is in vivo. As to the method: The anesthetized and ganglion-blocked rats whose blood pressure were maintained by an intravenous infusion of angiotensin II were prepared and the test compounds were evaluated according to substantially the same method as that of Deitchman et al., J. Pharmacol Methods, 3, 311 (1980).

Series [4] concerns SHR. The series is described as follows: 4 weeks administration to SHR, hypotensive potency. Type of series: in vivo, spontaneous hypertensive rats (SHR). The following applies: 15 mg/kg/day po. As to the method:
The hypotensive potency of the compound D was also compared with that of nicardipine by administering to the SHR for 4 weeks at 15 mg/kg/day, po.

Series [5] concerns spontaneous hypertensive rats (SHR). As to the kind of experiment: single oral administration to spontaneous hypertensive rats (SHR), antihypertensive activity. The format is in vivo. The note with it: compound D 1 mg/kg vs nicardipine 3 mg/kg.
In series [6] the test system is physiological saline loaded rats. The series is described as follows: diuretic activity in physiological saline loaded rats. The note with it: compound D 3 mg/kg po vs nicardipine 10 mg/kg po. Type of series: in vivo.

Structures can show the parent of a compound that is named as a salt.

Sequence of isolated strips of the descending aorta (P22002 whole entry): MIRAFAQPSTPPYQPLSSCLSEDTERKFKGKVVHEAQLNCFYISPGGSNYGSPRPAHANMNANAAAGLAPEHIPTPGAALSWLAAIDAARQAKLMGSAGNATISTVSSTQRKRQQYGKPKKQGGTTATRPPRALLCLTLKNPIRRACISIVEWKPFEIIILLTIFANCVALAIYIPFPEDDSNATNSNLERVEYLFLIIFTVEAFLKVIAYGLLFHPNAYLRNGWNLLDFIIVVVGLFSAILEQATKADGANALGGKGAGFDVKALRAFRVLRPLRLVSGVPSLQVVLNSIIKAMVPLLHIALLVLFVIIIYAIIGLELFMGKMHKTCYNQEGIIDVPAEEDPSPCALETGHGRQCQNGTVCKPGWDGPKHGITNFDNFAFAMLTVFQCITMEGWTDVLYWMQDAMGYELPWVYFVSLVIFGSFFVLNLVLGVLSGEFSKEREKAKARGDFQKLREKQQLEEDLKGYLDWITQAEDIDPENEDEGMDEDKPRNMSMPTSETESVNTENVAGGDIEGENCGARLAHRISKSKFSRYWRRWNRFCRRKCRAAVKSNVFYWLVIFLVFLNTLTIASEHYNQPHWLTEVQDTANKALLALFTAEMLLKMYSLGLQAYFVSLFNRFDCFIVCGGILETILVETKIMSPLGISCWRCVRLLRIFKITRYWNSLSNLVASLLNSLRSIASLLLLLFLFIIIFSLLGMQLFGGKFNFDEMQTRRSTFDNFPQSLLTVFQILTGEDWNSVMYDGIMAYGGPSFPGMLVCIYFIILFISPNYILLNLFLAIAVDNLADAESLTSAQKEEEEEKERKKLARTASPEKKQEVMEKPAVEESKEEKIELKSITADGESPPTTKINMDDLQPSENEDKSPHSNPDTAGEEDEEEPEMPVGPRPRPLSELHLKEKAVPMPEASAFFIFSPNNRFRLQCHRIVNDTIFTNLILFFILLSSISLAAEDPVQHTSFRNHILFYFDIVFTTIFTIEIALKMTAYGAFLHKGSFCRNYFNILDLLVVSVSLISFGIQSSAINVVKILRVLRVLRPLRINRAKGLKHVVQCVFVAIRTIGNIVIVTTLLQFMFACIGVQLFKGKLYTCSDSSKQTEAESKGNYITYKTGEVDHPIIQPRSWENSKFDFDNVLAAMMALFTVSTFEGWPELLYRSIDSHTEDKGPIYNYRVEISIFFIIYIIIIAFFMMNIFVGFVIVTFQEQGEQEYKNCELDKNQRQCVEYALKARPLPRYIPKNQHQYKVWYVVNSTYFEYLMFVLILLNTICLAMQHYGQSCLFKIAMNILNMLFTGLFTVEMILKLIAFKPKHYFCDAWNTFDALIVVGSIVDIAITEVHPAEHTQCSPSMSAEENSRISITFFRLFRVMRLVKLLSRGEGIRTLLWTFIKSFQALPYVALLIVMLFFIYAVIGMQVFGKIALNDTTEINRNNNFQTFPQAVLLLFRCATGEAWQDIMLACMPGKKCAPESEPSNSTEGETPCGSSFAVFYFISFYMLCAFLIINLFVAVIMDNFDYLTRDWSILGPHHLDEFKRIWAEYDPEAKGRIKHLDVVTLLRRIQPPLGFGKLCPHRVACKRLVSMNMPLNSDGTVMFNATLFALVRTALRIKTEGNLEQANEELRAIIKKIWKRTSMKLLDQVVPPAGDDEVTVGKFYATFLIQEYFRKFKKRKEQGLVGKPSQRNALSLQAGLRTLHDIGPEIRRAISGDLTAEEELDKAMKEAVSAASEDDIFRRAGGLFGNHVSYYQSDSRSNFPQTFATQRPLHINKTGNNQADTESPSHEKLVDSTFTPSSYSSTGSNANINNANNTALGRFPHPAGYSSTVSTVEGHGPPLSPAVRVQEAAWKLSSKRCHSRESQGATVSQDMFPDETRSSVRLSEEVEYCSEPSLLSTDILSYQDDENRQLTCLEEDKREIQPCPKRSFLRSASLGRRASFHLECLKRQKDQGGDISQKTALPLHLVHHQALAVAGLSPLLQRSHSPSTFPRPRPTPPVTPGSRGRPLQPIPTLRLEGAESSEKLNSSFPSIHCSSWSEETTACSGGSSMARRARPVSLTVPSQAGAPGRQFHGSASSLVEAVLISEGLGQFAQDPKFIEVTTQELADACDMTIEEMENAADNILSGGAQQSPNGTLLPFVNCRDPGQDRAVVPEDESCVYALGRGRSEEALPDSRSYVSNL
Sequence of isolated strips of the descending aorta (P54290 25-944 partner limits assumed): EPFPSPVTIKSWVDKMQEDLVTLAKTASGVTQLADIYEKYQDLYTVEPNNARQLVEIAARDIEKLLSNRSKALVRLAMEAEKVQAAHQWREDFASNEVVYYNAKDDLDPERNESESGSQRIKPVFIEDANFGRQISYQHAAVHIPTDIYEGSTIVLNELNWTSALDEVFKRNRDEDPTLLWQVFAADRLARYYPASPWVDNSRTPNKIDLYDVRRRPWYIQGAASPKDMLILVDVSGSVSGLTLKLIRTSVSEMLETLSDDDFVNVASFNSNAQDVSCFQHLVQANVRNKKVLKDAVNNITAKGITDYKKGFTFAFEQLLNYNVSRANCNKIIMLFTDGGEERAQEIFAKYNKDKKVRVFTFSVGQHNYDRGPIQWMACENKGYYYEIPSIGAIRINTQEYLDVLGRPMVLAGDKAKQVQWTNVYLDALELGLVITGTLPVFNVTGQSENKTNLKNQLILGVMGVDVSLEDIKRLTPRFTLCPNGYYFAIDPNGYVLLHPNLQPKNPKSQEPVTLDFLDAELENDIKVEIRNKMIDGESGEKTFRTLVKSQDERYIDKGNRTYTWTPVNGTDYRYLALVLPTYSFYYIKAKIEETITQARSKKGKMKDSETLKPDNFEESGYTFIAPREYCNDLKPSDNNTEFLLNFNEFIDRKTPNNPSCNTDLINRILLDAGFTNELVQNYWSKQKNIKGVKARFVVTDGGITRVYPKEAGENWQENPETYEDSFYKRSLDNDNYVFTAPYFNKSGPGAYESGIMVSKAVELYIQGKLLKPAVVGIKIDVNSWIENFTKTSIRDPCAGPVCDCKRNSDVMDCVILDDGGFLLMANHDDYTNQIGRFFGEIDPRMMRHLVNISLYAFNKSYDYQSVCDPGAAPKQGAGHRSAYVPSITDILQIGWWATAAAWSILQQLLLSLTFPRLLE
Sequence of isolated strips of the descending aorta (P54290 945-1091 partner limits assumed): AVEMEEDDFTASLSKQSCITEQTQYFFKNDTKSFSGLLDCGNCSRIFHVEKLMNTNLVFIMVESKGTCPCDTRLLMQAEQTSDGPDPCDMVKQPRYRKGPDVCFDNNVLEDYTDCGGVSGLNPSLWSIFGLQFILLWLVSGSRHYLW

For the compound `COC(=O)C1=C(C)NC(C)=C(c2nc(C)no2)C1c1cccc([N+](=O)[O-])c1` (centres unmarked) [Compound R1, Methyl 1,4-dihydro-2,6-dimethyl-3-(3-methyl-1,2,4-oxadiazol-5-yl)-4-(3-nitrophenyl)pyridine-5-carboxylate, reference compound], in series [1] (R1 compared with compounds A-G), the “calcium antagonistic potency: times less potent than the subject compounds” value is 100-1000 times. Moreover, the Kb in series [1] was 32.4 nM.
Regarding `COC(=O)C1=C(C)NC(C)=C(c2nc(CN3CCCCC3)no2)C1c1cccc([N+](=O)[O-])c1` (centres unmarked) [A, Methyl 1,4-dihydro-2,6-dimethyl-3-(3-piperidinomethyl-1,2,4-oxadiazol-5-yl)-4-(3-nitrophenyl)pyridine-5-carboxylate hydrochloride], the Kb in series [1] was 0.0309 nM.
Regarding `CC1=C(C(=O)OC(C)C)C(c2cccc([N+](=O)[O-])c2)C(c2nc(CN(C)Cc3ccccc3)no2)=C(C)N1` (centres unmarked) [G, Isopropyl 1,4-dihydro-2,6-dimethyl-3-[3-(N--benzyl-N--methylamino)methyl-1,2,4-oxadiazol-5-yl]-4-(3-nitrophenyl)-pyridine-5-carboxylate hydrochloride], the Kb in series [1] is 0.355 nM.
For `COC(=O)C1=C(C)NC(C)=C(c2nc(CN(C)CCc3ccc(OC)c(OC)c3)no2)C1c1cccc([N+](=O)[O-])c1` (centres unmarked) [F, Methyl 1,4-dihydro-2,6-dimethyl-3-[3-[N--(3,4-dimethoxyphenethyl)-N--methyl-amino]methyl-1,2,4-oxadiazol-5-yl]-4-(3-nitrophenyl)pyridine-5-carboxylate hydrochloride], in series [2], the minimal effective concentration amounted to 0.01 µM. Moreover, the Kb in series [1] is 0.0955 nM.
In the case of `COC(=O)C1=C(C)NC(C)=C(c2nc(CN3CCCCC3)no2)C1c1ccccc1` (centres unmarked) [B, Methyl 1,4-dihydro-2,6-dimethyl-3-(3-piperidinomethyl-1,2,4-oxadiazol-5-yl)-4-phenylpyridine-5-carboxylate hydrochloride], the Kb in series [1] is 0.363 nM.
With `COC(=O)C1=C(C)NC(C)=C(c2nc(CNC(C)c3ccccc3)no2)C1c1cccc([N+](=O)[O-])c1` (stereo not drawn) [E, Methyl 1,4-dihydro-2,6-dimethyl-3-[3-(α-methylbenzylamino)methyl-1,2,4-oxadiazol-5-yl]-4-(3-nitrophenyl)-pyridine-5-carboxylate citrate], the Kb in series [1] was 0.0457 nM.
Take `COC(=O)C1=C(C)NC(C)=C(c2nc(CN(C)Cc3ccccc3)no2)C1c1cccc([N+](=O)[O-])c1` (centres unmarked) [D, Methyl 1,4-dihydro-2,6-dimethyl-3-[3-(N--benzyl-N--methylamino)methyl-1,2,4-oxadiazol-5-yl]-4-(3-nitrophenyl)-pyridine-5-carboxylate hydrochloride]: the “antihypertensive effects in comparison with nifedipine and nicardipine” value in series [3] was “dose-dependently more potent and long acting antihypertensive effects in comparison with nifedipine and nicardipine”. Also, the minimal effective concentration in series [2] turned out to be 0.01 µM. In series [1], the Kb was 0.186 nM. Also, in series [4], the “antihypertensive activity on 4 weeks administration” value was “apparent antihypertensive activity” and the heart rate result is given as “slight decrease of heart rate”. In series [5], the “antihypertensive activity in SHR” value is reported as “about the same antihypertensive activity as that of nicardipine 3 mg/kg” and the “duration of antihypertensive effect in SHR” value is “continued much longer than that of nicardipine”. Moreover, the diuretic activity result in series [6] is listed as “about the same diuretic activity as that of nicardipine 10 mg/kg, po”.
As for `COC(=O)C1=C(C)NC(C)=C(C(=O)OCCN(C)Cc2ccccc2)C1c1cccc([N+](=O)[O-])c1` (centres unmarked) [Compound R3, 2-(N--Benzyl-N--methylamino)ethyl methyl 1,4-dihydro-2,6-dimethyl-4-(3-nitrophenyl)pyridine-3,5-dicarboxylate, reference compound], in series [2], the minimal effective concentration was > 0.1 µM. Further, the Kb in series [1] is 0.417 nM. Further, in series [4], the “antihypertensive activity on 4 weeks administration” value was “no significant effects”.
With `COC(=O)C1=C(C)NC(C)=C(c2nc(CN3CCCCC3)no2)C1c1ccc(Cl)c(Cl)c1` (centres unmarked) [C, Methyl 1,4-dihydro-2,6-dimethyl-3-(3-piperidinomethyl-1,2,4-oxadiazol-5-yl)-4-(3,4-dichlorophenyl)pyridine-5-carboxylate hydrochloride], in series [1], the Kb is 0.129 nM.

Values taken from US4705786A, “Novel oxadiazolyl-1,4-dihydropyridines useful as antihypertensive agents” (Sumitomo Pharmaceuticals Company, Limited, priority 1984, dated 1987).
